# Patent US9624206B2, “Antibacterial 1H-indazole and 1H-indole derivatives” (priority 2013, dated 2017)
# Key:
# Experiment in all cases: Bacterial growth minimal inhibitory concentration (microdilution, CLSI M7-A7)
# Type in all cases: cell-based
# [1] = test system: Acinetobacter baumannii T6474; details: Acinetobacter baumannii, T6474; multiply-resistant strain (in particular quinolone-resistant); cation-adjusted Mueller-Hinton Broth
# Description: (§1) Minimal Inhibitory Concentrations (MICs; mg/L) were determined in cation-adjusted Mueller-Hinton Broth by a microdilution method following the description given in “Methods for Dilution Antimicrobial Susceptibility Tests for Bacteria that Grow Aerobically”, Approved standard, 7th ed., Clinical and Laboratory Standards Institute (CLSI) Document M7-A7, Wayne, Pa., USA (2006).
# (§2) All Example compounds were tested against several Gram-positive and Gram-negative bacteria. […] K. pneumoniae A-651 and Acinetobacter baumannii T6474 are multiply-resistant strains (in particular quinolone-resistant), while E. coli ATCC25922 and P. aeruginosa ATCC27853 are quinolone-sensitive strains.
# [2] = test system: E. coli ATCC25922; details: Escherichia coli, ATCC25922; quinolone-sensitive strain; cation-adjusted Mueller-Hinton Broth
# Description: as §1, §2
# [3] = test system: P. aeruginosa ATCC27853; details: Pseudomonas aeruginosa, ATCC27853; quinolone-sensitive strain; cation-adjusted Mueller-Hinton Broth
# Description: as §1, §2
# [4] = test system: K. pneumoniae A-651; details: Klebsiella pneumoniae, A651; multiply-resistant strain (in particular quinolone-resistant); cation-adjusted Mueller-Hinton Broth
# Description: as §1, §2
Structure (SMILES),MIC [1] [µg/mL],MIC [2] [µg/mL],MIC [3] [µg/mL],MIC [4] [µg/mL]
"C[C@@](CCn1ccc2cc(C#Cc3ccc([C@@H](O)CO)cc3)ccc21)(C(=O)NO)S(C)(=O)=O [Example 44, (R)-4-(5-((4-((R)-1,2-dihydroxyethyl)phenyl)ethynyl)-1H-indol-1-yl)-N-hydroxy-2-methyl-2-(methylsulfonyl)butanamide]",8,0.125,2,0.25
"C[C@@](CCn1ncc2cc(C#CC#C[C@H]3C[C@@H]3CO)c(F)cc21)(C(=O)NO)S(C)(=O)=O [Example 46, (R)-4-(6-fluoro-5-(((1S,2S)-2-(hydroxymethyl)cyclopropyl)buta-1,3-diyn-1-yl)-1H-indazol-1-yl)-N-hydroxy-2-methyl-2-(methylsulfonyl)butanamide]",> 32,≤ 0.063,1,0.125
"C[C@@](CCn1ccc2cc(C#CC#C[C@@H]3C[C@H]3CO)c(F)cc21)(C(=O)NO)S(C)(=O)=O (relative stereo) [Example 41, (R)-4-(6-fluoro-5-(((1R*,2R*)-2-(hydroxymethyl)cyclopropyl)buta-1,3-diyn-1-yl)-1H-indol-1-yl)-N-hydroxy-2-methyl-2-(methylsulfonyl)butanamide]",16,0.125,1,0.125
"CC(C)(O)C#CC#Cc1ccc2c(cnn2CC[C@](C)(C(=O)NO)S(C)(=O)=O)c1 [Example 7, (R)—N-hydroxy-4-(5-(5-hydroxy-5-methylhexa-1,3-diyn-1-yl)-1H-indazol-1-yl)-2-methyl-2-(methylsulfonyl)butanamide]",32,0.5,2,1
"C[C@@H](O)c1ccc(C#Cc2ccc3c(cnn3CC[C@](C)(C(=O)NO)S(C)(=O)=O)c2F)cc1 [Example 37, (R)-4-(4-fluoro-5-((4-((R)-1-hydroxyethyl)phenyl)ethynyl)-1H-indazol-1-yl)-N-hydroxy-2-methyl-2-(methylsulfonyl)butanamide]",≤ 0.063,≤ 0.063,1,0.125
"CC(CCn1ncc2cc(CCc3ccccc3)ccc21)(C(=O)NO)S(C)(=O)=O (racemic) [RE4, (RS)—N-hydroxy-2-methyl-2-(methylsulfonyl)-4-(5-phenethyl-1H-indazol-1-yl)butanamide]",8,2,8,0.5
"COc1ccc(-c2ccc3c(ccn3CCC(C)(C(=O)NO)S(C)(=O)=O)c2F)c(F)c1 (racemic) [RE12, (RS)-4-(4-fluoro-5-(2-fluoro-4-methoxyphenyl)-1H-indol-1-yl)-N-hydroxy-2-methyl-2-(methylsulfonyl)butanamide]",2,2,2,4
"COc1cccc(-c2ccc3c(cnn3CCC(C)(C(=O)NO)S(C)(=O)=O)c2)c1F (racemic) [RE2, (RS)-4-(5-(2-fluoro-3-methoxyphenyl)-1H-indazol-1-yl)-N-hydroxy-2-methyl-2-(methylsulfonyl)butanamide]",32,8,16,16
"C[C@@](CCn1ncc2cc(-c3ccc(-n4nccn4)cc3)ccc21)(C(=O)NO)S(C)(=O)=O [Example 6, (R)-4-(5-(4-(2H-1,2,3-triazol-2-yl)phenyl)-1H-indazol-1-yl)-N-hydroxy-2-methyl-2-(methylsulfonyl)butanamide]",0.125,≤ 0.063,2,0.125
"C[C@@](CCn1ncc2cc(C#Cc3ccc(C4(CO)CC4)cc3)ccc21)(C(=O)NO)S(C)(=O)=O [Example 52, (R)—N-hydroxy-4-(5-((4-(1-(hydroxymethyl)cyclopropyl)phenyl)ethynyl)-1H-indazol-1-yl)-2-methyl-2-(methylsulfonyl)butanamide]",0.125,≤ 0.063,2,0.25
"COc1ccc(-c2ccc3c(cnn3CC[C@](C)(C(=O)NO)S(C)(=O)=O)c2)c(F)c1 [Example 3, (R)-4-(5-(2-fluoro-4-methoxyphenyl)-1H-indazol-1-yl)-N-hydroxy-2-methyl-2-(methylsulfonyl)butanamide]",1,0.25,1,1
"C[C@@](CCn1ncc2c(F)c(C#Cc3ccc(C4(CO)COC4)cc3)ccc21)(C(=O)NO)S(C)(=O)=O [Example 40, (R)-4-(4-fluoro-5-((4-(3-(hydroxymethyl)oxetan-3-yl)phenyl)ethynyl)-1H-indazol-1-yl)-N-hydroxy-2-methyl-2-(methylsulfonyl)butanamide]",0.5,0.5,4,1
"CSc1ccc(-c2ccc3c(ccn3CCC(C)(C(=O)NO)S(C)(=O)=O)c2)c(F)c1 (racemic) [RE10, (RS)-4-(5-(2-fluoro-4-(methylthio)phenyl)-1H-indol-1-yl)-N-hydroxy-2-methyl-2-(methylsulfonyl)butanamide]",4,2,8,0.5
"C[C@@](CCn1ncc2cc(C#Cc3ccc(CCO)cc3)c(F)cc21)(C(=O)NO)S(C)(=O)=O [Example 47, (R)-4-(6-fluoro-5-((4-(2-hydroxyethyl)phenyl)ethynyl)-1H-indazol-1-yl)-N-hydroxy-2-methyl-2-(methylsulfonyl)butanamide]",0.25,≤ 0.063,2,0.25
"C[C@@](CCn1ccc2cc(C#Cc3ccc(C4(O)COC4)cc3)c(F)cc21)(C(=O)NO)S(C)(=O)=O (single isomer, unassigned) [Example 15]",0.25,0.5,1,0.5
"C[C@@](CCn1ncc2cc(C#Cc3ccc([C@@H]4C[C@H]4CO)cc3)ccc21)(C(=O)NO)S(C)(=O)=O [Example 20, (R)—N-hydroxy-4-(5-((4-((1R,2R)-2-(hydroxymethyl)cyclopropyl)phenyl)ethynyl)-1H-indazol-1-yl)-2-methyl-2-(methylsulfonyl)butanamide]",≤ 0.063,≤ 0.063,1,0.25
"C[C@@](CCn1ncc2c(F)c(C#CC#C[C@H]3C[C@@H]3CO)ccc21)(C(=O)NO)S(C)(=O)=O [Example 31, (R)-4-(4-fluoro-5-(((1S,2S)-2-(hydroxymethyl)cyclopropyl)buta-1,3-diyn-1-yl)-1H-indazol-1-yl)-N-hydroxy-2-methyl-2-(methylsulfonyl)butanamide]",1,≤ 0.063,0.5,≤ 0.063
"C[C@@](CCn1ncc2cc(C#CC#CC3(O)COC3)ccc21)(C(=O)NO)S(C)(=O)=O [Example 5, (R)—N-hydroxy-4-(5-((3-hydroxyoxetan-3-yl)buta-1,3-diyn-1-yl)-1H-indazol-1-yl)-2-methyl-2-(methylsulfonyl)butanamide]",> 32,1,2,1
"COc1ccc(-c2ccc3c(ccn3CC[C@](C)(C(=O)NO)S(C)(=O)=O)c2)c(F)c1 (single isomer, unassigned) [Example 2]",8,0.125,2,2
"CC#CCOc1ccc2c(ccn2CCC(C)(C(=O)NO)S(C)(=O)=O)c1 (racemic) [RE1, (RS)-4-(5-(but-2-yn-1-yloxy)-1H-indol-1-yl)-N-hydroxy-2-methyl-2-(methylsulfonyl)butanamide]",16,8,16,16
"C[C@@](CCn1ccc2cc(C#Cc3ccc(CO)cc3F)ccc21)(C(=O)NO)S(C)(=O)=O [Example 43, (R)-4-(5-((2-fluoro-4-(hydroxymethyl)phenyl)ethynyl)-1H-indol-1-yl)-N-hydroxy-2-methyl-2-(methylsulfonyl)butanamide]",16,0.5,1,0.5
"C[C@@](CCn1ncc2cc(C#CC#CC[C@@H](O)CO)ccc21)(C(=O)NO)S(C)(=O)=O [Example 50, (R)-4-(5-((R)-6,7-dihydroxyhepta-1,3-diyn-1-yl)-1H-indazol-1-yl)-N-hydroxy-2-methyl-2-(methylsulfonyl)butanamide]",32,4,2,4
"CC(C)(O)c1ccc(C#Cc2ccc3c(ccn3CC[C@](C)(C(=O)NO)S(C)(=O)=O)c2)cc1 [Example 29, (R)—N-hydroxy-4-(5-((4-(2-hydroxypropan-2-yl)phenyl)ethynyl)-1H-indol-1-yl)-2-methyl-2-(methylsulfonyl)butanamide]",0.5,0.25,2,0.5
"C[C@@](CCn1ncc2cc(C#CC#CC3(O)CSC3)ccc21)(C(=O)NO)S(C)(=O)=O [Example 13, (R)—N-hydroxy-4-(5-((3-hydroxythietan-3-yl)buta-1,3-diyn-1-yl)-1H-indazol-1-yl)-2-methyl-2-(methylsulfonyl)butanamide]",8,0.25,1,0.25
